# According to patent US7244446B2, “Method for providing long-lasting pain diminishment through topical or intranasal administration of civamide” (Winston Laboratories, Inc., priority 2003, dated 2007):
# Columns and labels:
# [1] = test system: painful, inflammatory or allergic disorders; settings: compositions containing civamide; from U.S. Pat. No. 5,063,060; cited from earlier work
# [2] = test system: patients with long-standing painful osteoarthritis of the knees; test: Painful osteoarthritis of the knees, 0.075% civamide cream three times daily for two to four weeks, then discontinued; assay type: in vivo, human; settings: 0.075% civamide in cream vehicle, topical
# Description: Patients with long-standing painful osteoarthritis of the knees applied 0.075% civamide in a cream vehicle three times daily for two to four weeks, and then the medication was discontinued. Relief of painful osteoarthritis continued for as long as 2–4 months after discontinuing the medication.
# [3] = test system: patients with episodic cluster headaches; test: Episodic cluster headache patients, 0.025% civamide intranasally once daily for seven days, three-week follow-up; assay type: in vivo, human; settings: 0.1 ml of 0.025% civamide in aqueous vehicle, each nostril, 7 days
# Protocol: Patients with episodic cluster headaches were treated with 0.1 ml of 0.025% civamide in an aqueous vehicle given once daily intranasally to each nostril for seven days. Following completion of the seven-day treatment period, cluster headache patients were followed for another three weeks during which they received no treatment.
# [4] = test system: patients with episodic cluster headache; test: Episodic cluster headache patients, 0.01% civamide metered nasal spray twice daily for seven days, six-week follow-up; assay type: in vivo, human; settings: 0.01% civamide in aqueous vehicle, 7 days
# Protocol: Patients with episodic cluster headache were treated with 0.01% civamide in an aqueous vehicle delivered by metered nasal spray twice daily for seven days. The patients were then followed for an additional six weeks after treatment.
smiles,measurement,setting,value
"COc1cc(CNC(=O)CCCC/C=C\C(C)C)ccc1O [civamide, cis-8-methyl-N-vanillyl-6-nonenamide]",Efficacy compared with compositions containing capsaicin,[1],comparable in efficacy to compositions containing capsaicin
same,Local adverse effects compared with capsaicin,[1],significantly less local adverse effects normally associated with capsaicin
same,Duration of relief of painful osteoarthritis after discontinuing the medication,[2],2–4 months
same,Headache frequency three weeks after treatment versus during or immediately after treatment,[3]; three weeks after completion,lower three weeks following completion of treatment than during or immediately after the treatment period
same,Frequency of cluster headaches after completion of treatment,[3]; three weeks follow-up without treatment,decreased continuously over the three weeks following completion of the short course (7 days) of treatment
same,Frequency of cluster headache over follow-up,[4]; six weeks follow-up,declined continuously over the six-week period
same,Reduction in headaches during week six,[4]; week six after treatment,~65%
